Source: US12115208B2, “Small-molecule adjuvants for antibiotics to address antibiotic resistance” (HIGH POINT UNIVERSITY, priority 2017, dated 2024)
≈ marks a conversion by molar mass, not a printed value. Where two headings read alike, the source gives them in different places. Values belong to the compound of their own block, whether it stands above or below them.

Experiments:
[1] = system: S. aureus ATCC 43300 (MRSA); assay: Minimum inhibitory concentration, broth microdilution; type: cell-based, Staphylococcus aureus; conditions: 18 h
Experimental: (§1) The compounds were then analyzed for antibiotic repotentiation activity. […] The tested strains included USA300, which is a common and particularly virulent strain of community-acquired MRSA.

S. aureus USA300 (MRSA) [2] = assay: as above; type: cell-based, Staphylococcus aureus; conditions: 18 h
Experimental: as §1

S. aureus USA100 (MRSA) [3] = assay: microbe, parasite or virus in culture; type: cell-based, Staphylococcus aureus; conditions: compound alone, CAMHB, 18 h
S. aureus 43300 (MRSA) = assay: Antibiotic repotentiation (antibiotic MIC with/without compound); type: cell-based, Staphylococcus aureus
Experimental: (§2) The overnight culture was diluted into fresh CAMHB to a concentration of 5×10^5 CFU/ml. […] On the same plate, a standard microdilution MIC with the tested antibiotics and no added compound was also performed to compare the antibiotic MIC in the presence and absence of compound. […] Fold reductions were calculated by dividing the MIC of the antibiotic without compound by the MIC of the antibiotic in the presence of compound.
as §1

S. aureus USA300 (MRSA) [4] = assay: as above; type: cell-based, Staphylococcus aureus; conditions: for Oxacillin MIC / Fold Reduction: +50 μM compound, S. aureus USA300 (MRSA); for Fold Reduction: oxacillin MIC; for MIC of antibiotic: MRSA USA300
Experimental: as §2, §1

S. aureus USA100 (MRSA) [5] = assay: as above; type: cell-based, Staphylococcus aureus
Experimental: as §2

MRSA 43300 biofilm = assay: Biofilm inhibition, crystal violet assay; type: cell-based, Staphylococcus aureus; conditions: 30 h
Experimental: (§3) A standard static crystal violet assay was used to quantify biofilm inhibition.^45 Cultures of S. aureus or S. epidermidis were grown overnight in TSBG (tryptic soy broth with 5% glucose) at 37° C. with shaking. These cultures were used to inoculate fresh TSBG to a calculated optical density of 0.01 at 600 nm (OD600). […] Untreated aliquots were used as a positive control and water served as a negative control. 100 μl of these suspensions were added to the wells of a 96-well polyvinylchloride microtiter plate. […] After incubation, media was discarded and the plates were washed with water to remove non-adherent cells. Adherent biofilms were stained with 110 μl of crystal violet (0.1% in water) and incubated at room temperature for thirty minutes. The crystal violet staining solution was discarded and plates were washed with water to remove excess stain. The resulting stained biofilms were solubilized with 200 μL of 95% ethanol for 10 minutes. 125 μl of the ethanol solutions were transferred to a clear polystyrene microtiter plate for evaluation. Absorbance at 540 nm was recorded using a BioTek Synergy H1 microplate reader. The absorbance of the negative control lanes was subtracted from the experimental values to account for background staining. Percent inhibition was calculated by comparison of the absorbance values of control versus treated wells under identical conditions.
Antibiotic resistance and biofilm formation share similar regulatory mechanisms. […] Biofilm inhibition was first assessed in S. aureus 43300, a methicillin-resistant strain (see Table 18). As described in Materials and Methods, a standard crystal violet assay was used to assess biofilm inhibition by the tested compounds. The IC50 is described as the compound concentration required to inhibit 50% of biofilm formation. The standard deviation is calculated from at least 3 independent experiments.

S. aureus ATCC 29213 = assay: Minimum inhibitory concentration, broth microdilution; type: cell-based; conditions: Staphylococcus aureus
Experimental: as §1

S. epidermidis 49461 = assay: Antibiotic repotentiation (oxacillin MIC with/without compound); type: cell-based, Staphylococcus epidermidis; conditions: +75 μM compound, S. epidermidis 49461
Experimental: as §2
Antibiotic potentiation in S. epidermidis was also investigated.

[6] = system: S. epidermidis ATCC 49461 biofilm; assay: Biofilm inhibition, crystal violet assay; type: cell-based, Staphylococcus epidermidis; conditions: Staphylococcus epidermidis, ATCC49461, 30 h, read-out: Inhibition of biofilm formation IC50
Experimental: as §3

[7] = system: S. aureus NR-49120 (VRSA); assay: Antibiotic repotentiation (antibiotic MIC with/without compound); type: cell-based, Staphylococcus aureus; conditions: VRSA NR-49120; for Fold Reduction: antibiotic MIC
Experimental: as §2

[8] = compound alone, S. aureus ATCC 43300 (MRSA), CAMHB, read-out: MIC
[9] = compound alone, S. aureus USA300 (MRSA), CAMHB, read-out: MIC
[10] = +50 μM compound, S. aureus 43300 (MRSA)
[11] = oxacillin MIC, +50 μM compound, S. aureus 43300 (MRSA)
[12] = +50 μM compound, S. aureus USA100 (MRSA)
[13] = oxacillin MIC, +50 μM compound, S. aureus USA100 (MRSA)
[14] = oxacillin MIC, +75 μM compound, S. aureus 43300 (MRSA)
[15] = oxacillin MIC, +150 μM compound, S. aureus 43300 (MRSA)

SMILES: Brc1ccc2[nH]c3ccccc3c2c1 [IV-3]
MIC [1, 8]: >200 µM
MIC (S. aureus USA300 (MRSA) [2]; [9]): >200 µM
MIC (S. aureus USA100 (MRSA) [3]): >200 µM
Oxacillin MIC (S. aureus 43300 (MRSA); [10]): 16 µg/mL
Fold Reduction (S. aureus 43300 (MRSA); [11]): 2
Oxacillin MIC (S. aureus USA300 (MRSA) [4]): 64 µg/mL
Fold Reduction (S. aureus USA300 (MRSA) [4]): 1
Oxacillin MIC (S. aureus USA100 (MRSA) [5]; [12]): 512 µg/mL
Fold Reduction (S. aureus USA100 (MRSA) [5]; [13]): 1

SMILES: Brc1cccc2[nH]c3ccccc3c12 [IV-4]
MIC [1, 8]: 200 µM
MIC (S. aureus USA300 (MRSA) [2]; [9]): 100 µM
MIC (S. aureus USA100 (MRSA) [3]): 100 µM (≈ 24.6 µg/mL)
Oxacillin MIC (S. aureus 43300 (MRSA); [10]): 32 µg/mL
Fold Reduction (S. aureus 43300 (MRSA); [11]): 1
Oxacillin MIC (S. aureus USA300 (MRSA) [4]): 2 µg/mL
Fold Reduction (S. aureus USA300 (MRSA) [4]): 32
Oxacillin MIC (S. aureus USA100 (MRSA) [5]; [12]): 4 µg/mL
Fold Reduction (S. aureus USA100 (MRSA) [5]; [13]): 128

SMILES: Brc1ccc2[nH]c3ccc(Br)cc3c2c1 [IV-5]
MIC [1, 8]: >200 µM
MIC (S. aureus USA300 (MRSA) [2]; [9]): >200 µM
MIC (S. aureus USA100 (MRSA) [3]): >200 µM
Oxacillin MIC (S. aureus 43300 (MRSA); [10]): 8/4
Fold Reduction (S. aureus 43300 (MRSA); [11]): 4/8
Oxacillin MIC (S. aureus USA300 (MRSA) [4]): 32 µg/mL
Fold Reduction (S. aureus USA300 (MRSA) [4]): 2
Oxacillin MIC (S. aureus USA100 (MRSA) [5]; [12]): 4 µg/mL
Fold Reduction (S. aureus USA100 (MRSA) [5]; [13]): 128

SMILES: Clc1ccc2[nH]c3ccc(Cl)cc3c2c1 [IV-6]
MIC [1, 8]: >200 µM
MIC (S. aureus USA300 (MRSA) [2]; [9]): >200 µM
MIC (S. aureus USA100 (MRSA) [3]): >200 µM
Oxacillin MIC (S. aureus 43300 (MRSA); [10]): 1 µg/mL
Fold Reduction (S. aureus 43300 (MRSA); [11]): 32
Oxacillin MIC (S. aureus USA300 (MRSA) [4]): 16/8
Fold Reduction (S. aureus USA300 (MRSA) [4]): 4/8
Fold Reduction (S. aureus USA100 (MRSA) [5]; [13]): 1024/2048
IC50 (MRSA 43300 biofilm): 10.2 µM

MIC (S. aureus ATCC 29213; ATCC29213, compound alone, S. aureus ATCC 29213, CAMHB, 18 h, read-out: MIC): 600 µM
MIC ([1]; Staphylococcus aureus, compound alone, S. aureus ATCC 43300 (MRSA), CAMHB, read-out: MIC): 600 µM
MIC (S. aureus USA300 (MRSA) [2]; Staphylococcus aureus, compound alone, S. aureus USA300 (MRSA), CAMHB, read-out: MIC): 600 µM
Oxacillin MIC (S. epidermidis 49461): 8 µg/mL
IC50 [6]: 270 µM
SMILES: CN1CCN(C2=Nc3ccccc3Oc3ccc(Cl)cc32)CC1 [Loxapine, 2-chloro-11-(4-methyl-1-piperazinyl)dibenz[b,f][1,4]oxazepine, reference compound]
Fold Reduction (S. aureus 43300 (MRSA); [14]): 1
Fold Reduction (S. aureus 43300 (MRSA); [15]): 4
Fold Reduction (S. epidermidis 49461; oxacillin MIC): 2

SMILES: Cc1cc2c(s1)Nc1ccccc1N=C2N1CCN(C)CC1 [Olanzapine, reference compound]
MIC (S. aureus ATCC 29213; ATCC29213, 18 h): 600 µM
MIC ([1]; Staphylococcus aureus): 600 µM
MIC (S. aureus USA300 (MRSA) [2]; Staphylococcus aureus): 600 µM
Fold Reduction (S. aureus 43300 (MRSA); [14]): 1
Fold Reduction (S. aureus 43300 (MRSA); [15]): 1

SMILES: CN[C@H](CC(C)C)C(=O)N[C@H]1C(=O)N[C@@H](CC(N)=O)C(=O)N[C@H]2C(=O)N[C@H]3C(=O)N[C@H](C(=O)N[C@H](C(=O)O)c4cc(O)cc(O)c4-c4cc3ccc4O)[C@H](O)c3ccc(c(Cl)c3)Oc3cc2cc(c3O[C@@H]2O[C@H](CO)[C@@H](O)[C@H](O)[C@H]2O[C@H]2C[C@](C)(N)[C@H](O)[C@H](C)O2)Oc2ccc(cc2Cl)[C@H]1O [Vancomycin]
MIC of antibiotic (S. aureus 43300 (MRSA); +Amoxapine (150 μM), S. aureus 43300 (MRSA)): 2 µg/mL
MIC of antibiotic (S. aureus 43300 (MRSA); +Loratadine 25 μM, MRSA 43300): 1 µg/mL
MIC of antibiotic (S. aureus 43300 (MRSA); +Loratadine 50 μM, MRSA 43300): 1 µg/mL
Fold Reduction (S. aureus 43300 (MRSA); antibiotic MIC, +Amoxapine (150 μM), S. aureus 43300 (MRSA)): 1
Fold Reduction (S. aureus 43300 (MRSA); antibiotic MIC, +Loratadine 25 μM, MRSA 43300): 1
Fold Reduction (S. aureus 43300 (MRSA); antibiotic MIC, +Loratadine 50 μM, MRSA 43300): 1
MIC of antibiotic (S. aureus 43300 (MRSA); antibiotic alone, no compound, S. aureus 43300 (MRSA)): 2 µg/mL
MIC of antibiotic (S. aureus 43300 (MRSA); antibiotic alone, S. aureus ATCC 43300 (MRSA)): 1 µg/mL
MIC of antibiotic (S. aureus USA300 (MRSA) [4]; +Loratadine 25 μM): 1 µg/mL
MIC of antibiotic (S. aureus USA300 (MRSA) [4]; +Loratadine 50 μM): 1 µg/mL
MIC of antibiotic (S. aureus USA300 (MRSA) [4]; antibiotic alone): 1 µg/mL
MIC of antibiotic ([7]; +Loratadine 25 μM): 512 µg/mL
MIC of antibiotic ([7]; +Loratadine 50 μM): 128 µg/mL
Fold Reduction ([7]; +Loratadine 25 μM): 2
Fold Reduction ([7]; +Loratadine 50 μM): 8
MIC of antibiotic ([7]; antibiotic alone): 1024 µg/mL
MIC of antibiotic (S. aureus USA100 (MRSA) [5]; +Loratadine 25 μM, MRSA USA100): 2 µg/mL
MIC of antibiotic (S. aureus USA100 (MRSA) [5]; +Loratadine 50 μM, MRSA USA100): 2 µg/mL
Fold Reduction (S. aureus USA100 (MRSA) [5]; antibiotic MIC, +Loratadine 25 μM, MRSA USA100): 1
Fold Reduction (S. aureus USA100 (MRSA) [5]; antibiotic MIC, +Loratadine 50 μM, MRSA USA100): 1
MIC of antibiotic (S. aureus USA100 (MRSA) [5]; antibiotic alone, MRSA USA100): 2 µg/mL
